Drawing on ChEMBL document CHEMBL5465560, “Selectivity Literature for EUbOPEN Chemogenomic Library” (2024), this text covers % of control, % of inhibition and % binding for five compounds.

For experiment [1], the target named is T1, Serine/threonine-protein kinase TNNI3K (Homo sapiens) (UniProt Q59H18).
T1 sequence (whole entry): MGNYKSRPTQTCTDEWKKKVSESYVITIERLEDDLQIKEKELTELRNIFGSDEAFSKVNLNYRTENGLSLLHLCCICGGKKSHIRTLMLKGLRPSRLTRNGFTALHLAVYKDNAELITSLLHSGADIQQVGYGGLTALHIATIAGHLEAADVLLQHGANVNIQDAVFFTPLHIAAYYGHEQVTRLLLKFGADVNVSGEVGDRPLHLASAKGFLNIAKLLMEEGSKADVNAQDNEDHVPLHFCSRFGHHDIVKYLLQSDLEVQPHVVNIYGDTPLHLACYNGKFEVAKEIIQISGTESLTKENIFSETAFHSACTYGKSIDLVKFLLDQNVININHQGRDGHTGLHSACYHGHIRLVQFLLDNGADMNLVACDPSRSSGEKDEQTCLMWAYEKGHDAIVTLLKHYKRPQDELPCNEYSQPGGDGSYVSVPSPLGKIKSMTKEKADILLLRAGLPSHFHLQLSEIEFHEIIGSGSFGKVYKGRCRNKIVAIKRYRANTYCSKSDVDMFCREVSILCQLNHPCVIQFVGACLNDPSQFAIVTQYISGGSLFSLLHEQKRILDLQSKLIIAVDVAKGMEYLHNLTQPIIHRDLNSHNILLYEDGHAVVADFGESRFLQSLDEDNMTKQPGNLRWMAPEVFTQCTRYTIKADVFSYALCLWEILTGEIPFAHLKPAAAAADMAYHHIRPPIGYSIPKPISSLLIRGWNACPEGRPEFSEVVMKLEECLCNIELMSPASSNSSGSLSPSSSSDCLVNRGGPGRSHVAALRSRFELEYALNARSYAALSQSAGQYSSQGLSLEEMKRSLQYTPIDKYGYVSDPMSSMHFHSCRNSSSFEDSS
Description: Selectivity interaction (KinomeScan (DiscoverX)) EUB0000695a TNNI3K. As to conditions: at 100 nM.

The target in experiment [2] is Epithelial discoidin domain-containing receptor 1 (Homo sapiens) (UniProt Q08345). The experiment can be described thus: Selectivity interaction (Kinase panel (Invitrogen)) EUB0000639a DDR1. To be noted: at 200 nM.
Epithelial discoidin domain-containing receptor 1 (Homo sapiens), sequence (Q08345 whole entry, the tested form may be a part): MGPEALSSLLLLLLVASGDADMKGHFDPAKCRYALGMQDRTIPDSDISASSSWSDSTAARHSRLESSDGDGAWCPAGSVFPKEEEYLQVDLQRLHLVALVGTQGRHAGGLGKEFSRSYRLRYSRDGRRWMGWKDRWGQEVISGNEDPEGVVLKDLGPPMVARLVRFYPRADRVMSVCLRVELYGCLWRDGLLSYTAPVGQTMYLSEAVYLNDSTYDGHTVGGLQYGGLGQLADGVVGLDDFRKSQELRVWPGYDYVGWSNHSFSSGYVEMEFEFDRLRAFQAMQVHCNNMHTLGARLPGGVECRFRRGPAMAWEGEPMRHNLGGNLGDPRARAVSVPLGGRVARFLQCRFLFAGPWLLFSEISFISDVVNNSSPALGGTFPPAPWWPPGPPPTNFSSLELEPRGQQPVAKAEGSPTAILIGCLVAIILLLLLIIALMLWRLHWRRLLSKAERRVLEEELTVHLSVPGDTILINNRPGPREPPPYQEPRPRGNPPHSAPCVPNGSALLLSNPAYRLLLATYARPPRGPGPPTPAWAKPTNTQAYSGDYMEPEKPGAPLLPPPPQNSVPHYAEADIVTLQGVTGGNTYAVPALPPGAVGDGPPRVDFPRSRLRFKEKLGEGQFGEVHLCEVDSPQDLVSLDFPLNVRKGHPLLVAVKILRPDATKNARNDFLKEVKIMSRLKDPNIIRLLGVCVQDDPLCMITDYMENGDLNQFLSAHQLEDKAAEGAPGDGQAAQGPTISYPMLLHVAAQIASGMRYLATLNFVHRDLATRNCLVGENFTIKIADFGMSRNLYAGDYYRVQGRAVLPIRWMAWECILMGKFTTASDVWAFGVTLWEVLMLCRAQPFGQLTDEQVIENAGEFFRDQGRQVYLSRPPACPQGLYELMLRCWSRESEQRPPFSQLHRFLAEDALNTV
In experiment [3] the target is T2, Ephrin type-B receptor 6 (Homo sapiens) (UniProt O15197).
T2 sequence (whole entry): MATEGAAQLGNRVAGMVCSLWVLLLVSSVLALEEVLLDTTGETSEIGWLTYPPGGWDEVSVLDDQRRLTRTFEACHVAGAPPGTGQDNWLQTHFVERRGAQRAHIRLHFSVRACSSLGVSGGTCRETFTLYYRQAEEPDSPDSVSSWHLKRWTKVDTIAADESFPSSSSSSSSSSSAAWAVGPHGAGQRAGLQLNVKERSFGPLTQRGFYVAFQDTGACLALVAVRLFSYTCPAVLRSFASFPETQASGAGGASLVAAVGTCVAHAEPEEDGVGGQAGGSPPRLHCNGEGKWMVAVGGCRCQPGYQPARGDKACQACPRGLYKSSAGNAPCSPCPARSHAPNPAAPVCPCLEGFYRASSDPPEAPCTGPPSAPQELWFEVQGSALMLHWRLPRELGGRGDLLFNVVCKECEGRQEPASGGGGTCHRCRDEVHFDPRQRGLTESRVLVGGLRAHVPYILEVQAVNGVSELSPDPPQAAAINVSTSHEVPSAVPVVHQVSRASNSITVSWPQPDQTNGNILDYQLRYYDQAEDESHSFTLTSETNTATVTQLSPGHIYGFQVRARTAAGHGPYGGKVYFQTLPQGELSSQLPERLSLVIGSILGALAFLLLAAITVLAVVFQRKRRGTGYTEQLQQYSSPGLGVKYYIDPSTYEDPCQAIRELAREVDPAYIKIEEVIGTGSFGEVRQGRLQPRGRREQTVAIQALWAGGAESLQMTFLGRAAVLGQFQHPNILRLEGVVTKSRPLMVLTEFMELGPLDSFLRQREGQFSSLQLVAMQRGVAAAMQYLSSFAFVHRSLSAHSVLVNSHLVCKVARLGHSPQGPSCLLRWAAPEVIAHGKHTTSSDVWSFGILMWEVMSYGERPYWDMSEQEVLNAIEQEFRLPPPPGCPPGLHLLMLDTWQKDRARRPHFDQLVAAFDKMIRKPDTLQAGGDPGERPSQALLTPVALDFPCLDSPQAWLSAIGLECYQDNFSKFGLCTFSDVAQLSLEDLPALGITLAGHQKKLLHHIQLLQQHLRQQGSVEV
Description: Selectivity interaction (KinomeScan (DiscoverX)) EUB0001049a EPHB6. As to conditions: at 1 µM.

The target in experiment [4] is Aurora kinase B (Homo sapiens, UniProt Q96GD4). Description: Selectivity interaction (KinomeScan (DiscoverX)) EUB0001079a AURKB. As to conditions: at 1 µM.
Aurora kinase B, sequence (Q96GD4 whole entry): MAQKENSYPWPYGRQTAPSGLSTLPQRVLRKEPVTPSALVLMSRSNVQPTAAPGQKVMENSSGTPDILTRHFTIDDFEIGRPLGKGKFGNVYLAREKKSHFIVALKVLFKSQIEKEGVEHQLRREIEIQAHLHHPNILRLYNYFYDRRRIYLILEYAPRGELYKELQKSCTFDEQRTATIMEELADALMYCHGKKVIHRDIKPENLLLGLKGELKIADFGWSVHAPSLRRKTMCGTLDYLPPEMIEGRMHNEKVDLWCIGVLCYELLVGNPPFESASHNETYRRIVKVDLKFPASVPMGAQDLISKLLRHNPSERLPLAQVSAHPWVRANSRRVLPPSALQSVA
In experiment [5] the target is T3, SNF-related serine/threonine-protein kinase (Homo sapiens) (UniProt Q9NRH2).
T3 sequence (whole entry): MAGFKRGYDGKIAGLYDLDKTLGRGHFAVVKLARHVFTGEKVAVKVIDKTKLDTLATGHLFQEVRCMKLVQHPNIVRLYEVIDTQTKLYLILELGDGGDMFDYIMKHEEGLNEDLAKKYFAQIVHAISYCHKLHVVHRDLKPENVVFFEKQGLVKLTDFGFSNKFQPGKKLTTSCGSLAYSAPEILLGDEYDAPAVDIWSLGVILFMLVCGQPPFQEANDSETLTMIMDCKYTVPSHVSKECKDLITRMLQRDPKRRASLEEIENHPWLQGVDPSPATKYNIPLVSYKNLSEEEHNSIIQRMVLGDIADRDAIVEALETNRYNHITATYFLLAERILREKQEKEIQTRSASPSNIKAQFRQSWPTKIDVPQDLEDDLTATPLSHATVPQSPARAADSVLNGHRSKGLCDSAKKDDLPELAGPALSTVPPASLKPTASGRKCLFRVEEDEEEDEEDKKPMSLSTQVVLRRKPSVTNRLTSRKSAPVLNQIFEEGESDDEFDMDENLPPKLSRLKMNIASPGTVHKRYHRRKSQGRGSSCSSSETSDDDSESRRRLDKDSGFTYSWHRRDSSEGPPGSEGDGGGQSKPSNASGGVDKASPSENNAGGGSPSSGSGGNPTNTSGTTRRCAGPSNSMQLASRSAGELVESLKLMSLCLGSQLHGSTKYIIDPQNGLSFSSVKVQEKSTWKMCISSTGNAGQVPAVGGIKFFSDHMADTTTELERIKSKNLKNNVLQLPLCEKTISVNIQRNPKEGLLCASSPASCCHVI
Description: Selectivity interaction (KinomeScan (DiscoverX)) EUB0000229b SNRK. As to conditions: at 10 µM.

In turn, `Cc1cc(F)c(C(=O)Nc2cccc(-c3nncn3C(C)C)n2)cc1-n1cnc(C2CC2)c1` showed a % of control in experiment [1] of 100%.
As for `CC[C@@H]1[C@H](F)C(=O)N[C@@H]1COc1nccc2cc(C(N)=O)c(OC)cc12` [ZIMLOVISERTIB], the % of inhibition in experiment [2] is -1.2%.
Regarding `COc1cc(Nc2nc(C)cc(-c3cnn4nc(OC)ccc34)n2)cc(C(F)(F)F)c1`, the % of control in experiment [3] is 78%.
`Nc1cnc(N2CCc3cc(S(=O)(=O)Nc4c(F)cc(Cl)cc4F)cc(N4CCCC4=O)c32)nc1` [TP-020n]: the % of control in experiment [4] worked out at 98%.
`COc1cc(N(C)c2ccnc3ccc(C(F)(F)F)cc23)cc(OC)c1OC`: in experiment [5], the % binding is 53%.
